# Results as given in US20020049257A1, “Antibacterial composition” (priority 2000, published 2002).
# Key:
# [1] = system: Ax 26 Corynebacterium sp.; assay: MIC microtiter plate test, axilla strain Ax 26; type: cell-based; details: for Bacteriostatic activity Corynebact. Ax 26: at least 80% reduction in growth during 24 hours, Table 7; for Minimal inhibitory concentration (MIC) Ax 26: at least 80% growth inhibition, 24 h, 36° C., Table 1
# Excerpt: (§1) The different bacterial strains had been isolated from the human axilla by current microbiological practice. They were taxonomically identified by cell morphology, gram-reaction, and biochemical tests included in the Api coryne test kit (BioMerieux, France). Strain Staphylococcus epidermidis Ax25 was identified by fatty acid methyl ester analysis (FAME; German type strain collection DSMZ, Germany). The strains were maintained on Tryptic soy broth plates, this standard medium being amended with 5 g per Liter of Tween 80 and 1 g of Soybean lecithin. Plates were incubated at 36° C. for a period 48 hours. The bacteria were then swabbed from the plates and suspended in 4 ml of Muller-Hinton broth amended with 100 mg of Tween 80 per Liter (MH-Tween) and incubated again at 360 C for 16 hours. Following incubation the bacterial suspensions were diluted in MH-Tween to obtain a final cell density of 10^6 colony forming units per ml. For each fragrance material four microtiter plates were used in the example, each microtiter plate having 8 rows, A-H, and 12 columns, 1-12. To each column a diluted suspension of a different test organism was distributed, 100 μl per well. 1% stock solutions of the fragrance materials were then prepared in MH-Tween broth. The fragrance material was dispersed by ultrasonication into the aqueous medium to obtain a homogenous emulsion. 100 μl per well of this emulsion was then added to the first row of the microtiter plates already containing the target organisms. Serial dilution series were then prepared starting at row A and continuing until row G, each time removing 100 μl from a well and transferring it to the next well. In this way fragrance concentrations of 0.5%, 0.25%, 0.125%, 0.0625%, 0.03125%, 0.0156%, and 0.0078% were tested for their antibacterial efficacy. The reference compound Triclosan was tested at 16-fold lower concentrations. The plates were covered with plastic films and incubated for 24 h at 36° C. with shaking at 250 rpm. The turbidity developing in the microtiter plates was then examined after 24 h to determine microbial growth. The minimal concentration of fragrance inhibiting the growth of an organism by at least 80% was determined as the minimal inhibitory concentration (MIC).
# Ax 25 was identified as Staphylococcus epidermidis by FAME analysis. Identification with the Api Coryne test kit yielded the following species assignments for the remainder of the strains: Ax 26 Corynebacterium sp.; Ax 3 Corynebacterium bovis; Ax 7 Corynebacterium group G; Ax 10 Corynebacterium jeikeium; Ax 11 Corynebacterium jeikeium; Ax 12 Corynebacteriurn jeikeium; Ax 15 Corynebacterium jeikeium; Ax 20 Corynebacterium striatum/amycolatum; and Ax 19 Corynebacterium jeikeium. The strains were isolated from the axilla of 8 human volunteers. […]
# [2] = system: Ax 15 Corynebacterium jeikeium; assay: MIC microtiter plate test, axilla strain Ax 15; type: cell-based; details: for Bacteriostatic activity Corynebact. Ax 15: at least 80% reduction in growth during 24 hours, Table 7; for Minimal inhibitory concentration (MIC) Ax 15: at least 80% growth inhibition, 24 h, 36° C., Table 1
# Excerpt: as §1
# (§2) Ax 25 was identified as Staphylococcus epidermidis by FAME analysis. Identification with the Api Coryne test kit yielded the following species assignments for the remainder of the strains: Ax 26 Corynebacterium sp.; Ax 3 Corynebacterium bovis; Ax 7 Corynebacterium group G; Ax 10 Corynebacterium jeikeium; Ax 11 Corynebacterium jeikeium; Ax 12 Corynebacteriurn jeikeium; Ax 15 Corynebacterium jeikeium; Ax 20 Corynebacterium striatum/amycolatum; and Ax 19 Corynebacterium jeikeium. The strains were isolated from the axilla of 8 human volunteers. Based on biochemical tests and colony morphology all strains were distinct from each other, even the several strains all belonging to Corynebacterium jeikelurn.
# [3] = system: Corynebacteria; assay: MIC against Corynebacteria (average / overall); type: cell-based, Corynebacterium; details: malodor forming axilla bacteria
# Excerpt: (§3) The different bacterial strains had been isolated from the human axilla by current microbiological practice. They were taxonomically identified by cell morphology, gram-reaction, and biochemical tests included in the Api coryne test kit (BioMerieux, France). Strain Staphylococcus epidermidis Ax25 was identified by fatty acid methyl ester analysis (FAME; German type strain collection DSMZ, Germany). The strains were maintained on Tryptic soy broth plates, this standard medium being amended with 5 g per Liter of Tween 80 and 1 g of Soybean lecithin. Plates were incubated at 36° C. for a period 48 hours. The bacteria were then swabbed from the plates and suspended in 4 ml of Muller-Hinton broth amended with 100 mg of Tween 80 per Liter (MH-Tween) and incubated again at 360 C for 16 hours. Following incubation the bacterial suspensions were diluted in MH-Tween to obtain a final cell density of 10^6 colony forming units per ml. For each fragrance material four microtiter plates were used in the example, each microtiter plate having 8 rows, A-H, and 12 columns, 1-12. […]
# Since sandela is known to be a mixture of different reaction products, commercial sandela was subjected to a distillation process. […] The different fractions were evaluated for their antimicrobial activity (Table 6) with the method described in example 1. […]
# [4] = system: Ax 3 Corynebacterium bovis; assay: MIC microtiter plate test, axilla strain Ax 3; type: cell-based; details: at least 80% growth inhibition, 24 h, 36° C.; Table 1
# Excerpt: as §1, with “The minimal concentration of fragrance inhibiting the growth of an organism by at least 80% was determined as the minimal inhibitory concentration (MIC).” left out
# [5] = system: Ax 7 Corynebacterium group G; assay: MIC microtiter plate test, axilla strain Ax 7; type: cell-based; details: for Minimal inhibitory concentration (MIC) Ax 7: at least 80% growth inhibition, 24 h, 36° C., Table 1
# Excerpt: as §1, §2
# [6] = system: Ax 11 Corynebacterium jeikeium; assay: MIC microtiter plate test, axilla strain Ax 11; type: cell-based; details: at least 80% growth inhibition, 24 h, 36° C.; Table 1
# Excerpt: as §1, with “The minimal concentration of fragrance inhibiting the growth of an organism by at least 80% was determined as the minimal inhibitory concentration (MIC).” left out
# [7] = system: Ax 12 Corynebacteriurn jeikeium; assay: MIC microtiter plate test, axilla strain Ax 12; type: cell-based, Corynebacterium jeikeium; details: at least 80% growth inhibition, 24 h, 36° C.; Table 1
# Excerpt: as §1, with “The minimal concentration of fragrance inhibiting the growth of an organism by at least 80% was determined as the minimal inhibitory concentration (MIC).” left out
# [8] = system: Ax 20 Corynebacterium striatum/amycolatum; assay: MIC microtiter plate test, axilla strain Ax 20; type: cell-based; details: at least 80% growth inhibition, 24 h, 36° C.; Table 1
# Excerpt: as §1, with “The minimal concentration of fragrance inhibiting the growth of an organism by at least 80% was determined as the minimal inhibitory concentration (MIC).” left out
# [9] = system: Ax 10 Corynebacterium jeikeium; assay: MIC microtiter plate test, axilla strain Ax 10; type: cell-based; details: at least 80% growth inhibition, 24 h, 36° C.; Table 1
# Excerpt: as §3, with “1-12. To each column a diluted suspension of a different test organism was distributed, 100 μl per well. 1% stock solutions of the fragrance materials were then prepared in MH-Tween broth. The fragrance material was dispersed by ultrasonication into the aqueous medium to obtain a homogenous emulsion.” for “1-12.”
# [10] = system: Ax 19 Corynebacterium jeikeium; assay: MIC microtiter plate test, axilla strain Ax 19; type: cell-based; details: at least 80% growth inhibition, 24 h, 36° C.; Table 1
# Excerpt: as §3, with “1-12. To each column a diluted suspension of a different test organism was distributed, 100 μl per well. 1% stock solutions of the fragrance materials were then prepared in MH-Tween broth. The fragrance material was dispersed by ultrasonication into the aqueous medium to obtain a homogenous emulsion.” for “1-12.”
# [11] = system: Brevibacterium epidermidis DSMZ 9586; assay: MIC against Brevibacterium epidermidis; type: cell-based; details: DSMZ 9586, method of Example 1
# Excerpt: as §1
# A selection of perfume compounds were tested against Brevibacterium epidermidis DSMZ 9586 (German Collection of Microorganisms and Cell Cultures) with the method described in Example 1.
# [12] = system: Propionibacterium acnes DSMZ1897; assay: MIC against Propionibacterium acnes, anaerobic, 72 hours; type: cell-based; details: DSMZ1897, anaerobic conditions
SMILES,Bacteriostatic activity Corynebact. Ax 15 [2],Minimal inhibitory concentration (MIC) Ax 3 [4] [% weight/ volume],Minimal inhibitory concentration (MIC) Ax 7 [5] [% weight/ volume],Minimal inhibitory concentration (MIC) Ax 11 [6] [% weight/ volume],Minimal inhibitory concentration (MIC) Ax 12 [7] [% weight/ volume],Minimal inhibitory concentration (MIC) Ax 15 [2] [% weight/ volume],Minimal inhibitory concentration (MIC) Ax 20 [8] [% weight/ volume],MIC for Brevibacterium epidermidis [11] [% w/v],MIC for Propionibacterium acnes [12] [% w/v],other results
"COC1CC(C2CC3CC2C(C)C3(C)C)CCC1O (single isomer, unassigned) [Peak A]",0.0048 percent (w/v),–,–,–,–,–,–,–,–,Bacteriostatic activity Corynebact. Ax 26 [1]: 0.0028 percent (w/v)
"COC1CC(C2CC3CC2C(C)C3(C)C)CCC1O (single isomer, unassigned) [Peak B]",0.0028 percent (w/v),–,–,–,–,–,–,–,–,Bacteriostatic activity Corynebact. Ax 26 [1]: 0.0016 percent (w/v)
"COC1CC(C2CC3CC2C(C)C3(C)C)CCC1O (stereo not drawn) [2-methoxy-4-(5,5,6-trimethylbicyclo[2.2.1]hept-2-yl)cyclohexan-1-ol]",–,–,–,–,–,–,–,–,–,activity against Corynebacteria (in words) [3]: highest activity
"COC1CCC(C2CC3CC2C(C)C3(C)C)CC1O (stereo not drawn) [2-methoxy-5-(5,5,6-trimethyl-bicyclo[2.2.1]hept-2-yl)cyclohexan-1-ol]",–,–,–,–,–,–,–,–,–,activity against Corynebacteria (in words) [3]: highest activity
CC1=CCC(/C=C\C(C)C(C)O)C1(C)C (stereo not drawn) [Ebanol],–,0.1250,0.1250,0.2500,0.2500,0.2500,0.1250,–,–,Minimal inhibitory concentration (MIC) Ax 26 [1]: 0.1250 % weight/ volume
"CC(C)=CCCC(C)=CCCC(C)=CCO [Farnesol, 3,7,11-trimethyl-2,6,10-dodecatrien-1-ol]",0.0156 percent (w/v),0.0156,–,–,0.0137,0.0156,0.0137,0.0078,0.0078,Minimal inhibitory concentration (MIC) Ax 10 [9]: 0.0078 % weight/ volume; Minimal inhibitory concentration (MIC) Ax 19 [10]: 0.0156 % weight/ volume
CCC(=CCC1CC=C(C)C1(C)C)CO (stereo not drawn) [Radjanol],–,–,0.0625,–,–,–,–,0.03125,–,–
CC1=CCC(CCC(C)C(C)O)C1(C)C (stereo not drawn) [Sandalore],–,0.1250,0.1250,0.1250,0.1250,–,0.1250,0.0937,0.25,Minimal inhibitory concentration (MIC) Ax 26 [1]: 0.1250 % weight/ volume; Minimal inhibitory concentration (MIC) Ax 10 [9]: 0.1250 % weight/ volume
"Oc1cc(Cl)ccc1Oc1ccc(Cl)cc1Cl [Triclosan, 2,4,4′-trichloro-2′-hydroxy-diphenyl-ether]",–,–,0.0029,0.0029,–,0.0029,–,0.003125,0.00039,"Bacteriostatic activity Corynebact. Ax 7 ([5]; at least 80% reduction in growth during 24 hours, Table 7): 0.0025 percent (w/v)"
